target: T1, Human GO (Homo sapiens, UniProt Q9UJM8); assay: GO enzymatic assay (coupled fluorescence/HRP assay, glycolate substrate); assay type: biochemical; conditions: Table 2; read-out: Range (range of IC50 values calculated from the enzymatic assays)
T1 construct: purchased Novus Biologicals NBP1-72412
T1 sequence (Q9UJM8 1-370): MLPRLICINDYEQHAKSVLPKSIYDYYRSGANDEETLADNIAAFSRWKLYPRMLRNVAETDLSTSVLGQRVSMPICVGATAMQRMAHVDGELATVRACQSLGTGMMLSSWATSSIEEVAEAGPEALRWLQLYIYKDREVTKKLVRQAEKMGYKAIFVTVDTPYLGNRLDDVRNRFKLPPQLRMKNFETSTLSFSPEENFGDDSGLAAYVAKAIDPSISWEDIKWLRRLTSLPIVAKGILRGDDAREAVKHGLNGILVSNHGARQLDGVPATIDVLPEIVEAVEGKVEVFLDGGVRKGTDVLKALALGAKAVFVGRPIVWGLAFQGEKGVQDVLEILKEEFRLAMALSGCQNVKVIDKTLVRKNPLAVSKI
In short: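 Coupled HRP/fluorescence read-out of glycolate oxidation by human GO in 50 mM potassium phosphate buffer (pH 7). Inhibitors added across a concentration range.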

SMILES | IC50 [nM]
O=C(O)c1[nH]nnc1Nc1cnc2cc(Cl)ccc2c1 [Compound 186, 4-((7-chloroquinolin-3-yl)amino)-1H-1,2,3-triazole-5-carboxylic acid] | 1000 to 10000
CCN(Cc1nn[nH]c1C(=O)O)c1ccc2cc(Cl)ccc2c1 [Compound 187, 4-(((6-chloronaphthalen-2-yl)(ethyl)amino)methyl)-1H-1,2,3-triazole-5-carboxylic acid] | 100 to 1000
O=C(O)c1[nH]nnc1CN1CCCc2cc(Cl)ccc21 [Compound 188, 4-((6-chloro-3,4-dihydroquinolin-1(211)-yl)methyl)-1H-1,2,3-triazole-5-carboxylic acid] | 1000 to 10000
CCN(Cc1nn[nH]c1C(=O)O)c1ccc(-c2ccc(OC(F)(F)F)cc2)cc1 [Compound 189, 4-((ethyl(4′-(trifluoromethoxy)-[1,1′-biphenyl]-4-yl)amino)methyl)-1H-1,2,3-triazole-5-carboxylic acid 2,2,2-trifluoroacetate] | 100 to 1000
O=C(O)c1[nH]nnc1NC1Cc2cc(Cl)c(Cl)cc2C1 [Compound 190, 4-((5,6-dichloro-2,3-dihydro-1H-inden-2-yl)amino)-1H-1,2,3-triazole-5-carboxylic acid 2,2,2-trifluoroacetate] | 100 to 1000
O=C(O)c1[nH]nnc1CN(Cc1ccccc1)c1ccc(C2CCCCC2)cc1 [Compound 194, 4-((benzyl(4-cyclohexylphenyl)amino)methyl)-1H-1,2,3-triazole-5-carboxylic acid] | 1000 to 10000
O=C(O)c1[nH]nnc1CN(Cc1ccc(OC(F)(F)F)cc1)c1ccc(Cl)cc1 [Compound 195, 4-(((4-chlorophenyl)(4-(trifluoromethoxy)benzyl)amino)methyl)-1H-1,2,3-triazole-5-carboxylic acid] | 100 to 1000
O=C(O)c1[nH]nnc1CN(Cc1ccccc1)c1ccc(-c2ccc(OC(F)(F)F)cc2)cc1 [Compound 196, 4-((benzyl(4′-(trifluoromethoxy)-[1,1′-biphenyl]-4-yl)amino)methyl)-1H-1,2,3-triazole-5-carboxylic acid 2,2,2-trifluoroacetate] | 100 to 1000
O=C(O)c1[nH]nnc1-c1ccc(-c2ccc(Cl)cc2)c(OC(F)(F)F)c1 [Compound 203, 4-(4′-chloro-2-(trifluoromethoxy)-[1,1′-biphenyl]-4-yl)-1H-1,2,3-triazole-5-carboxylic acid] | < 100
CC(C)C(=O)OCOC(=O)c1[nH]nnc1-c1ccc2cc(Cl)ccc2n1 [Compound 204, (isobutyryloxy)methyl 4-(6-chloroquinolin-2-yl)-1H-1,2,3-triazole-5-carboxylate] | 1000 to 10000

The next lines start with the values.

IC50 [nM] | SMILES
< 100 | O=C(O)c1[nH]nnc1C(F)(F)c1ccc(-c2ccc(Cl)cc2)c(Cl)c1 [Compound 197, 4-((2,4′-dichloro-[1,1′-biphenyl]-4-yl)difluoromethyl)-1H-1,2,3-triazole-5-carboxylic acid 2,2,2-trifluoroacetate]
< 100 | O=C(O)c1[nH]nnc1C(F)(F)c1ccc(-c2ccc(OC(F)(F)F)cc2)cc1 [Compound 198, 4-(difluoro(4′-(trifluoromethoxy)-[1,1′-biphenyl]-4-yl)methyl)-1H-1,2,3-triazole-5-carboxylic acid 2,2,2-trifluoroacetate]
< 100 | O=C(O)c1[nH]nnc1C(F)(F)c1ccc2cc(Cl)ccc2c1 [Compound 199, 4-((6-chloronaphthalen-2-yl)difluoromethyl)-1H-1,2,3-triazole-5-carboxylic acid]
< 100 | O=C(O)c1[nH]nnc1C(F)(F)c1ccc(-c2ccc(Cl)cc2)cc1 [Compound 200, 4-((4′-chloro-[1,1′-biphenyl]-4-yl)difluoromethyl)-1H-1,2,3-triazole-5-carboxylic acid 2,2,2-trifluoroacetate]
< 100 | O=C(O)c1[nH]nnc1C(F)(F)c1ccc(-c2ccc(Cl)c(Cl)c2)cc1 [Compound 201, 4-((3′,4′-dichloro-[1,1′-biphenyl]-4-yl)difluoromethyl)-1H-1,2,3-triazole-5-carboxylic acid 2,2,2-trifluoroacetate]
